Experimental data from the supplement of paper PMC10733146.

How the values were obtained:
Experiment in all cases: viability relative to DMSO control (fraction); higher = less drug effect (more viable cells)
[1] = tested on: primary ALL patient cells (S048); conditions: 48 h
Outline: (§1)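 Using 384-well plates with compounds already plated at five concentrations, one well per concentration, 4 × 10^4 primary mononuclear tumour cells were added per well. Cells were Ficoll-isolated from blood or bone marrow or came from processed lymph node, fresh or cryopreserved. They were kept for 48 h at 37 °C and 5% CO2 in RPMI-1640 supplemented with penicillin/streptomycin, L-glutamine and human serum, and viability was read as CellTiter-Glo luminescence relative to the median of 16 inner DMSO wells.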

[2] = tested on: primary AML patient cells (S007); conditions: 48 h
Outline: as §1

[3] = tested on: primary AML patient cells (S006); conditions: 48 h
Outline: as §1

[4] = tested on: primary AML patient cells (S027); conditions: 0.0016 µM; 48 h
Outline: as §1

[5] = tested on: primary AML patient cells (S089); conditions: 48 h
Outline: as §1

[6] = tested on: primary AML patient cells (S072); conditions: 48 h
Outline: as §1

[7] = tested on: primary MCL patient cells (S063); conditions: 48 h
Outline: as §1

[8] = tested on: primary T-NHL patient cells (S058); conditions: 48 h
Outline: as §1

[9] = tested on: primary AML patient cells (S079); conditions: 48 h
Outline: as §1

[10] = tested on: primary ALL patient cells (S088); conditions: 48 h
Outline: as §1

[11] = tested on: primary AML patient cells (S056); conditions: 48 h
Outline: as §1

[12] = tested on: primary AML patient cells (S071); conditions: 48 h
Outline: as §1

[13] = tested on: primary DLBCL patient cells (S049); conditions: 48 h
Outline: as §1

[14] = tested on: primary CLL patient cells (S043); conditions: 48 h
Outline: as §1

[15] = tested on: primary DLBCL patient cells (S082); conditions: 48 h
Outline: as §1

[16] = tested on: primary AML patient cells (S060); conditions: 48 h
Outline: as §1

[17] = tested on: primary CLL patient cells (S031); conditions: 48 h
Outline: as §1

[18] = tested on: primary DLBCL patient cells (S076); conditions: 48 h
Outline: as §1

SMILES: Cc1nc(Nc2ncc(C(=O)Nc3c(C)cccc3Cl)s2)cc(N2CCN(CCO)CC2)n1 [Dasatinib]
- viability ([1]; 0.0016 µM): 1.05
- viability ([1]; 0.008 µM): 0.937
- viability ([1]; 0.04 µM): 0.911
- viability ([1]; 0.2 µM): 0.864
- viability ([1]; 1 µM): 0.926
- viability ([2]; 0.0016 µM): 0.89
- viability ([2]; 0.008 µM): 0.964
- viability ([2]; 0.04 µM): 0.917
- viability ([2]; 0.2 µM): 0.837
- viability ([2]; 1 µM): 0.755
- viability ([3]; 0.0016 µM): 0.961
- viability ([3]; 0.008 µM): 0.912
- viability ([3]; 0.04 µM): 0.88
- viability ([3]; 0.2 µM): 0.808
- viability [4]: 1.06
- viability ([5]; 0.0016 µM): 0.976
- viability ([5]; 0.008 µM): 1.03
- viability ([5]; 0.04 µM): 0.576
- viability ([5]; 0.2 µM): 0.504
- viability ([5]; 1 µM): 0.537
- viability ([6]; 0.0016 µM): 0.945
- viability ([6]; 0.008 µM): 0.851
- viability ([6]; 0.04 µM): 0.712
- viability ([6]; 0.2 µM): 0.623
- viability ([6]; 1 µM): 0.704
- viability ([7]; 0.0016 µM): 1
- viability ([7]; 0.008 µM): 0.653
- viability ([7]; 0.04 µM): 0.245
- viability ([7]; 0.2 µM): 0.151
- viability ([7]; 1 µM): 0.118
- viability ([8]; 0.0016 µM): 0.962
- viability ([8]; 0.008 µM): 0.836
- viability ([8]; 0.04 µM): 0.861
- viability ([8]; 0.2 µM): 0.834
- viability ([8]; 1 µM): 0.855
- viability ([9]; 0.0016 µM): 0.973
- viability ([9]; 0.008 µM): 0.911
- viability ([9]; 0.04 µM): 0.863
- viability ([9]; 0.2 µM): 0.812
- viability ([9]; 1 µM): 1.04
- viability ([10]; 0.0016 µM): 0.899
- viability ([10]; 0.008 µM): 0.709
- viability ([10]; 0.04 µM): 0.62
- viability ([10]; 0.2 µM): 0.545
- viability ([10]; 1 µM): 0.631
- viability ([11]; 0.0016 µM): 0.859
- viability ([11]; 0.008 µM): 1.03
- viability ([11]; 0.04 µM): 0.748
- viability ([11]; 0.2 µM): 0.63
- viability ([11]; 1 µM): 0.572
- viability ([12]; 0.0016 µM): 1.04
- viability ([12]; 0.008 µM): 1.05
- viability ([12]; 0.04 µM): 1
- viability ([12]; 0.2 µM): 0.948
- viability ([12]; 1 µM): 0.951
- viability ([13]; 0.0016 µM): 0.952
- viability ([13]; 0.008 µM): 0.83
- viability ([13]; 0.04 µM): 0.814
- viability ([13]; 0.2 µM): 0.497
- viability ([13]; 1 µM): 0.33
- viability ([14]; 0.0016 µM): 1.31
- viability ([14]; 0.008 µM): 1.2
- viability ([14]; 0.04 µM): 0.67
- viability ([14]; 0.2 µM): 0.595
- viability ([14]; 1 µM): 0.547
- viability ([15]; 0.0016 µM): 0.966
- viability ([15]; 0.008 µM): 0.847
- viability ([15]; 0.04 µM): 0.643
- viability ([15]; 0.2 µM): 0.298
- viability ([15]; 1 µM): 0.0983
- viability ([16]; 0.0016 µM): 1.02
- viability ([16]; 0.008 µM): 1.03
- viability ([16]; 0.04 µM): 0.901
- viability ([16]; 0.2 µM): 0.891
- viability ([16]; 1 µM): 0.638
- viability ([17]; 0.0016 µM): 0.944
- viability ([17]; 0.008 µM): 0.609
- viability ([17]; 0.04 µM): 0.393
- viability ([17]; 0.2 µM): 0.325
- viability ([17]; 1 µM): 0.313
- viability ([18]; 0.0016 µM): 0.835
- viability ([18]; 0.008 µM): 0.672
- viability ([18]; 0.04 µM): 0.628
- viability ([18]; 0.2 µM): 0.532
- viability ([18]; 1 µM): 0.535
